# Data published in ChEMBL document CHEMBL5257049, “Interconvertible Pyridone Alkaloids from the Marine-Derived Fungus Penicillium oxalicum QDU1” (J Nat Prod, 2023).
# System: RAW264.7
# Assay: Antiinflammatory activity in mouse RAW264.7 cells assessed as inhibition of LPS-stimulated NO production preincubated for 3 hrs followed by LPS stimulation and measured after 24 hrs by Griess reagent based assay
# Type: functional, cell-based
smiles,measurement,value
CC[C@H](C)/C=C(C)/C=C/[C@H]1Oc2c(-c3ccc(O)cc3)c[nH]c(=O)c2[C@H](O)[C@H]1C,IC50,17 µM
CC(/C=C/C=C(C)/C(O)=C1/C(=O)N/C(=C\c2ccc(O)cc2)C1=O)=C\[C@H](C)[C@@H](C)O,IC50,14 µM
CO[C@@H]1c2c(c(-c3ccc(O)cc3)c[nH]c2=O)O[C@H](/C=C/C(C)=C/[C@H](C)[C@@H](C)O)[C@@H]1C,IC50,17 µM
CC[C@H](C)/C=C(C)/C=C/[C@H]1Oc2c(-c3ccc(O)cc3)c[nH]c(=O)c2[C@H](OC)[C@H]1C,IC50,9.2 µM
CC[C@H](C)/C=C(C)/C=C/[C@H]1Oc2c(-c3ccc(O)cc3)c[nH]c(=O)c2[C@@H](O)[C@@H]1C,IC50,19 µM
CO[C@@H]1c2c(c(-c3ccc(O)cc3)c[nH]c2=O)O[C@@H](/C=C/C(C)=C/[C@H](C)[C@@H](C)O)[C@@H]1C,IC50,15 µM
CC(/C=C/C=C(C)/C(O)=C1/C(=O)N[C@H]([C@@H](O)c2ccc(O)cc2)C1=O)=C\[C@H](C)[C@@H](C)O,IC50,> 20 µM
CC(/C=C/[C@@H]1Oc2c(-c3ccc(O)cc3)c[nH]c(=O)c2[C@@H](O)[C@H]1C)=C\[C@H](C)[C@@H](C)O,IC50,> 20 µM
CC(/C=C/[C@@H]1Oc2c(-c3ccc(O)cc3)c[nH]c(=O)c2[C@@H](O)[C@H]1C)=C\[C@H](C)[C@H](C)O,IC50,> 20 µM
CO[C@@H]1c2c(c(-c3ccc(O)cc3)c[nH]c2=O)O[C@@H](/C=C/C(C)=C/[C@H](C)[C@H](C)O)[C@@H]1C,IC50,18 µM
CC[C@H](C)/C=C(C)/C=C/[C@H]1Oc2c(-c3ccc(O)cc3)c[nH]c(=O)c2[C@H](OC)[C@@H]1C,IC50,> 20 µM
CC[C@H](C)/C=C(C)/C=C/[C@H]1Oc2c(-c3ccc(O)cc3)c[nH]c(=O)c2[C@H](O)[C@@H]1C,IC50,> 20 µM
CC(/C=C/[C@@H]1Oc2c(-c3ccc(O)cc3)c[nH]c(=O)c2[C@H](O)[C@H]1C)=C\[C@H](C)[C@@H](C)O,IC50,> 20 µM
CC(/C=C/C=C(C)/C(O)=C1/C(=O)N[C@@H]([C@@H](O)c2ccc(O)cc2)C1=O)=C\[C@H](C)[C@@H](C)O,IC50,> 20 µM
COc1ccc2c(c1)c(CC(=O)O)c(C)n2C(=O)c1ccc(Cl)cc1 [INDOMETHACIN],IC50,0.62 µM
